Data from publication PMC11483914, “Appendage- and Scaffold-Diverse Electrophilic and Photoreactive Probes for Integrated Phenotypic Screening–Target Identification Campaigns via a Minimalist Bifunctional Isocyanide” (ACS Omega, 2024).

Tests used:
[1] = biological target: T1, protein disulfide isomerase A1 (PDIA1) (Homo sapiens, UniProt P07237); assay: in-gel fluorescence after CuAAC, SKOV-3 wildtype versus PDIA1 knockout and HEK293T overexpression; type: cell-based; conditions: 500 nM, 1 h
T1 construct: gene P4HB; full-length PDIA1 overexpressed in HEK293T (anti-myc detected) for labelling, also endogenous
T1 sequence (P07237 18-508): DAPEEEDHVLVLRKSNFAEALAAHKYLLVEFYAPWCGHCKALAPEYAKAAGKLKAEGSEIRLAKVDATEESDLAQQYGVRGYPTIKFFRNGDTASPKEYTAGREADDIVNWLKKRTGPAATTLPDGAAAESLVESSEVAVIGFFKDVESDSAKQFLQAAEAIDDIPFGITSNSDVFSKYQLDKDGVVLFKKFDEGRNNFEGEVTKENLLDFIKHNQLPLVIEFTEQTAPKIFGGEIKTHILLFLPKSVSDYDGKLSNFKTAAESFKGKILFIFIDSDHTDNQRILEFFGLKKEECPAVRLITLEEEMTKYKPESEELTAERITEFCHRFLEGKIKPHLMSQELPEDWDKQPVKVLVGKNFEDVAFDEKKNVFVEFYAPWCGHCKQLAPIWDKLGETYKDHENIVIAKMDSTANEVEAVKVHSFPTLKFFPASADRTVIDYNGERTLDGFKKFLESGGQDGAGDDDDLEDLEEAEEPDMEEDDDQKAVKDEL

[2] = biological target: T1, protein disulfide isomerase A1 (PDIA1); assay: insulin reductase (insulin aggregation) assay; type: biochemical; conditions: covalent; a-site C53

`C#CCN(CCNC(=O)C1(N(CC=C)C(=O)c2ccc(Cl)cc2)CCN(Cc2ccccc2)CC1)C(=O)CCl` [4a, FFSMP 4a] was tested, and the covalent labelling [1] was “confirming PDIA1 as a predominant protein target of biologically active FFSMP 4a” and the “inhibition of PDIA1 activity” value [2] was “FFSMP 4a was shown to inhibit PDIA1 at low μM concentrations”.
